Read-outs that look alike come from different tables or passages of the source.
Legend:
[1] = system: Mice; assay: In vivo toxicity, maximum tolerated dose, i.p. escalating doses; design: species or system mouse; settings: no transferrin
Protocol: Mice were injected (i.p.) with escalating doses of the photosensitizers with and without transferrin.

[2] = system: AY27 cancer cells; assay: Transferrin receptor antibody blocking, dark toxicity and PDT effect; format: cell-based; settings: 635 nm, 90 J cm−2, anti-transferrin receptor antibody
Protocol: The cells were incubated with anti-transferrin receptor antibody. The photosensitizer was pre-mixed in parallel with 0.4 mg/mL human transferrin and incubated for 1 hour at 37° C. In control group (no additional transferrin), equivalent volume of no-transferrin medium was added. The cells were washed of the excess of antibody (the cells incubated in medium without antibody served as comparison groups) and incubated with the pre-mixes for 30 minutes. After that, the medium was replaced with a fresh one (without photosensitizer and transferrin) and the cells were irradiated. On the next day (21 hours post-irradiation), viability of the cells was measured using Presto Blue viability assay, and percent of cell kill was calculated. The PDT effect shown is a result of subtraction of “photosensitizer alone” and “light alone” cell kill from the total PDT cell kill. Dark toxicity is shown on FIG. 20A, PDT effect is shown on FIG. 20B.
(§1) The cells were incubated with anti-transferrin antibody. […] On the next day (21 hours post-irradiation), viability of the cells was measured using Presto Blue viability assay, and percent of cell kill was calculated. […]
as §1

[3] = Photobleaching / absorbance stability; format: physicochemical; settings: 525 nm laser; 0.8 mg/mL transferrin
Protocol: Photobleaching was measured: (a) at wavelength in visible range maximal for each photosensitizer. This allows to estimate dynamics of amount of unbleached photosensitizer during irradiation; and (b) at 530, 635 and 808 nm. This allows estimating dynamics of unbleached photosensitizer available to exert PDT effect at these wavelengths as practically useful for PDT treatments.
(§2) Photosensitizers (10 uM) were dissolved in phosphate buffer+100 mM NaCl (pH=7.0) alone or in a buffer with 0.8 mg/mL of transferrin at a total volume of 1 mL. The mixture was then exposed to a 525 nm laser source (130 mW) and the absorbance at the maximal absorbance in visible range (432 nm for TLD1433, 425 nm for TLD143310 and 562 nm for TLDOsH2dppn) was measured at specific time points. The plot represents the absorbance ratio (absorbance of exposed samples/absorbance of unexposed sample) as a function of the number of incident photons per cm^−2. Decreasing absorbance ratio signifies bleaching of the photosensitizer.
as §2, with “530” for “the maximal absorbance in visible range (432”, “nm” for “nm for TLD1433, 425 nm for TLD143310 and 562 nm for TLDOsH2dppn)”
as §2, with “635” for “the maximal absorbance in visible range (432”, “nm” for “nm for TLD1433, 425 nm for TLD143310 and 562 nm for TLDOsH2dppn)”, “photosensitizer. […]” for “photosensitizer.”

[4] = Fluorescence with and without transferrin; format: physicochemical; settings: for fluorescence emission maximum: 10 uM
Protocol: Fluorescence of TLD1433 (10 uM) was measured quartz cuvettes without Tf (in water) and in the presence of 0.2 mg/mL Tf (in phosphate buffer+100 mM NaCl, pH=7.0). Fluorescence was measured at different excitation wavelengths (380, 400, 450, 470, 500 nm).
Fluorescence of TLDOsH2dppn (10 uM) was measured quartz cuvettes without Tf (in water) and in the presence of 0.2 mg/mL Tf (in phosphate buffer+100 mM NaCl, pH=7.0). Fluorescence was measured at different excitation wavelengths (380, 400, 450, 470, 500 nm).

[5] = system: AY27 cells

For `[Os+2].c1ccc2cc3nc4c5cccnc5c5ncccc5c4nc3cc2c1.c1ccc2nc(-c3ccc4ccccc4n3)ccc2c1.c1ccc2nc(-c3ccc4ccccc4n3)ccc2c1` [TLDOsH2dppn], the “MTD Dose” value [1] was 50 mg/kg, the “effect of blocking transferrin receptors on dark toxicity and PDT effect” value [2] was “prevents decrease in dark toxicity and facilitation of PDT effect” and the “photobleaching, absorbance ratio at 530 nm” value [3] was “bleaching of the photosensitizers was reduced”. For the same compound, the “photobleaching, absorbance ratio at 635 nm” value [3] was “bleaching of the photosensitizers was reduced”, the “photobleaching, absorbance ratio at 808 nm” value [3] was “bleaching of the photosensitizers was reduced” and the fluorescence emission maximum ([4]; 0.2 mg/mL transferrin) was 650 nm. The fluorescence emission maximum ([4]; no transferrin (in water)) was 660 nm, the “fluorescence in the presence of transferrin” value ([4]; 0.2 mg/mL transferrin, especially at 470 nm excitation) was “strongly increased” and the “Therapeutic Ratio” value ([5]; 530 nm, 90 J cm−2, no transferrin) was 1639.8. For the same compound, the “Therapeutic Ratio” value ([5]; 530 nm, 90 J cm−2, transferrin) was 5531.9, the “Therapeutic Ratio” value ([5]; 650 nm, 90 J cm−2, no transferrin) was 28.7 and the “Therapeutic Ratio” value ([5]; 650 nm, 90 J cm−2, transferrin) was 61.7.

Source: patent US10111936B2, “Metal-glycoprotein complexes and photodynamic therapy of immune privileged sites with same” (Theralase Technologies, Inc., priority 2015, dated 2018)
